Consider three compounds from publication PMC3809078 (Journal of natural products, 2013).

For assay [1], the system named is T47D cells. Briefly: Cell proliferation/viability assay. In kind it is cell-based, human.
In assay [2] the test system is MDA-MB-231 cells. Briefly: Cell proliferation/viability assay. Format: cell-based, human.
Assay [3] relates to retinoic acid receptors (RARs). The following applies: cytotoxic activity attributed to it; cited from earlier work.

Consider `CC1=C(CC/C(C)=C/CC/C(C)=C/C[C@@H](O)C2=CC(=O)OC2)C(C)(C)C(=O)CC1` [Compound 1, thorectidaeolide A], for which the “effect on cell viability (in words)” value is recorded as “Neither 1, nor 2, or any of the other less active sesterterpenes suppressed” in assay [1] and “Neither 1, nor 2, or any of the other less active sesterterpenes suppressed” in assay [2].

Turning to `CC(=O)O[C@H](C/C=C(\C)CC/C=C(\C)CCC1=C(C)CCC(=O)C1(C)C)C1=CC(=O)OC1` [Compound 2, 4-acetoxythorectidaeolide A], the “effect on cell viability (in words)” value in assay [1] was “Neither 1, nor 2, or any of the other less active sesterterpenes suppressed”; in assay [2], “Neither 1, nor 2, or any of the other less active sesterterpenes suppressed”.

With `CC1=C(CC/C(C)=C/CC/C(C)=C/CCC2=CC(=O)OC2O)C(C)(C)CCC1` (stereo not shown) [Compound 11, luffariellolide], the “effect on cell viability (in words)” value in assay [1] and in assay [2] was “significant level of cytotoxicity” in each case. Moreover, the “action on retinoic acid receptors (in words)” value in assay [3] is reported as “agonist of retinoic acid receptors”.
